Each structure is given as a SMILES string.

Holding throughout (format): functional
In test [1] the test system is Candida albicans. Nature of the test: Antifungal activity against Candida albicans ATCC 90028 assessed as planktonic growth inhibition at 1.37 uM after 48 hrs by M27-A3 protocol based method relative to control. Particulars: ATCC 90028, 48 h, read-out: GI.
For test [2], the system named is Candida albicans. Nature of the test: Antifungal activity against Candida albicans ATCC 90028 assessed as planktonic growth inhibition at 2.74 uM after 48 hrs by M27-A3 protocol based method relative to control. Particulars: ATCC 90028, 48 h, read-out: GI.
Test [3] concerns Candida albicans. Put plainly: Antifungal activity against Candida albicans ATCC 90028 assessed as planktonic growth inhibition at 0.34 uM after 48 hrs by M27-A3 protocol based method relative to control. Particulars: ATCC 90028, 48 h, read-out: GI.
The subject of test [4] is Candida albicans. Put plainly: Antifungal activity against Candida albicans ATCC 90028 assessed as planktonic growth inhibition at 0.17 uM after 48 hrs by M27-A3 protocol based method relative to control. Particulars: ATCC 90028, 48 h, read-out: GI.
Test [5] concerns Candida albicans. Put plainly: Antifungal activity against Candida albicans ATCC 90028 assessed as planktonic growth inhibition at 21.89 uM after 48 hrs by M27-A3 protocol based method relative to control. The conditions noted are these: ATCC 90028, 48 h, read-out: GI.
Test [6] deals with Candida albicans. Put plainly: Antifungal activity against Candida albicans ATCC 90028 assessed as planktonic growth inhibition at 0.68 uM after 48 hrs by M27-A3 protocol based method relative to control. The conditions noted are these: ATCC 90028, 48 h, read-out: GI.
The test system of test [7] is Candida albicans. Put plainly: Fungicidal activity against Candida albicans ATCC 90028 assessed as log reduction in fungal load incubated for 48 hrs followed by replating on sabouraud dextrose agar plate and measured after 48 hrs.
Test [8] concerns Candida albicans. Put plainly: Antifungal activity against Candida albicans ATCC 90028 assessed as planktonic growth inhibition at 10.95 uM after 48 hrs by M27-A3 protocol based method relative to control. Particulars: ATCC 90028, 48 h, read-out: GI.
Test [9] deals with Candida albicans. Nature of the test: Antifungal activity against Candida albicans ATCC 90028 assessed as planktonic growth inhibition at 5.47 uM after 48 hrs by M27-A3 protocol based method relative to control. Particulars: ATCC 90028, 48 h, read-out: GI.
The test system of test [10] is Candida albicans. Nature of the test: Antifungal activity against Candida albicans ATCC 90028 assessed as planktonic growth inhibition at 0.09 uM after 48 hrs by M27-A3 protocol based method relative to control. The conditions noted are these: ATCC 90028, 48 h, read-out: GI.
The test system of test [11] is Candida albicans. Nature of the test: Antifungal activity against Candida albicans ATCC 90028 assessed as planktonic growth inhibition at 43.78 uM after 48 hrs by M27-A3 protocol based method relative to control. Particulars: ATCC 90028, 48 h, read-out: GI.
For test [12], the system named is Candida albicans. Put plainly: Antifungal activity against Candida albicans ATCC 90028 assessed as planktonic growth inhibition at 22.13 uM after 48 hrs by M27-A3 protocol based method relative to control. The conditions noted are these: ATCC 90028, 48 h, read-out: GI.
The test system of test [13] is Candida albicans. Nature of the test: Antifungal activity against Candida albicans ATCC 90028 assessed as planktonic growth inhibition at 1.38 uM after 48 hrs by M27-A3 protocol based method relative to control. Particulars: ATCC 90028, 48 h, read-out: GI.
Test [14] deals with Candida albicans. Put plainly: Antifungal activity against Candida albicans ATCC 90028 assessed as planktonic growth inhibition at 0.35 uM after 48 hrs by M27-A3 protocol based method relative to control. The conditions noted are these: ATCC 90028, 48 h, read-out: GI.
In test [15] the test system is Candida albicans. Nature of the test: Antifungal activity against Candida albicans ATCC 90028 assessed as planktonic growth inhibition at 2.77 uM after 48 hrs by M27-A3 protocol based method relative to control. Particulars: ATCC 90028, 48 h, read-out: GI.
Test [16] relates to Candida albicans. Nature of the test: Antifungal activity against Candida albicans ATCC 90028 assessed as planktonic growth inhibition at 11.07 uM after 48 hrs by M27-A3 protocol based method relative to control. Particulars: ATCC 90028, 48 h, read-out: GI.
Test [17] deals with Candida albicans. Nature of the test: Antifungal activity against Candida albicans ATCC 90028 assessed as planktonic growth inhibition at 0.69 uM after 48 hrs by M27-A3 protocol based method relative to control. Particulars: ATCC 90028, 48 h, read-out: GI.
Test [18] relates to Candida albicans. Put plainly: Antifungal activity against Candida albicans ATCC 90028 assessed as planktonic growth inhibition at 5.53 uM after 48 hrs by M27-A3 protocol based method relative to control. The conditions noted are these: ATCC 90028, 48 h, read-out: GI.
The test system of test [19] is Candida albicans. Put plainly: Antifungal activity against Candida albicans ATCC 90028 assessed as planktonic growth inhibition at 44.26 uM after 48 hrs by M27-A3 protocol based method relative to control. The conditions noted are these: ATCC 90028, 48 h, read-out: GI.

In the case of `Cc1ccc(-c2nnn(CCCN3CCCC3c3ccc(F)cc3)n2)cc1` (stereo not drawn), the inhibition of growth at 1.37 µM with Candida albicans [1] came out at 99.2%. In the test on Candida albicans [2], the inhibition of growth at 2.74 µM turned out to be 99.2%. Further, the inhibition of growth at 0.34 µM in the test with Candida albicans [3] was found to be 99.2%. Moreover, the inhibition of growth at 0.17 µM with Candida albicans [4] was determined as 99.1%. In the test with Candida albicans [5], the inhibition of growth at 21.89 µM stood at 98.7%. The inhibition of growth at 0.68 µM with Candida albicans [6] was determined as 99.1%. In addition, the “log(activity)” value in the test on Candida albicans [7] is reported as -0.3. Besides, the inhibition of growth at 10.95 µM in the test on Candida albicans [8] was 99.4%. For the same molecule, the inhibition of growth at 5.47 µM in the test with Candida albicans [9] turned out to be 99%. The inhibition of growth at 0.09 µM in the test with Candida albicans [10] came to 99.1%. Further, in the test on Candida albicans [11], the inhibition of growth at 43.78 µM worked out at 98.9%.

Consider `Cc1ccc(-c2nnn(CCCN3CCCC3c3ccc(C)cc3)n2)cc1` (stereo not drawn), for which the inhibition of growth at 22.13 µM in the test with Candida albicans [12] is 99.3%. In addition, the inhibition of growth at 1.38 µM in the test with Candida albicans [13] stood at 99%. Moreover, in the test on Candida albicans [14], the inhibition of growth at 0.35 µM worked out at 99.1%. In addition, in the test with Candida albicans [15], the inhibition of growth at 2.77 µM is 99%. Also, in the test on Candida albicans [4], the inhibition of growth at 0.17 µM is 99.3%. Moreover, in the test on Candida albicans [16], the inhibition of growth at 11.07 µM was 98.9%. Moreover, in the test on Candida albicans [17], the inhibition of growth at 0.69 µM was determined as 99.2%. Besides, the inhibition of growth at 5.53 µM with Candida albicans [18] turned out to be 99.3%. In the test with Candida albicans [19], the inhibition of growth at 44.26 µM was found to be 99.6%. The “log(activity)” value with Candida albicans [7] was -0.6. Besides, the inhibition of growth at 0.09 µM in the test on Candida albicans [10] is 99%.

Turning to `Cc1ccc(-c2nnn(CCCN3CCCC3c3cccc(C)c3)n2)cc1` (stereo not drawn), the inhibition of growth at 22.13 µM with Candida albicans [12] was 98.7%. In addition, the inhibition of growth at 1.38 µM in the test with Candida albicans [13] came out at 98.9%. Besides, the inhibition of growth at 0.35 µM in the test on Candida albicans [14] is 99%. The inhibition of growth at 2.77 µM in the test with Candida albicans [15] turned out to be 99.3%. Further, the inhibition of growth at 0.17 µM in the test with Candida albicans [4] was determined as 98.9%. For the same molecule, the inhibition of growth at 11.07 µM in the test on Candida albicans [16] stood at 98.8%. The inhibition of growth at 0.69 µM in the test with Candida albicans [17] was determined as 98.9%. Moreover, in the test with Candida albicans [18], the inhibition of growth at 5.53 µM was determined as 99.1%. For the same molecule, the inhibition of growth at 44.26 µM in the test on Candida albicans [19] worked out at 99%. In the test with Candida albicans [7], the “log(activity)” value is reported as -0.4. Besides, the inhibition of growth at 0.09 µM in the test on Candida albicans [10] was found to be 98.9%.

For the origin of these results see ChEMBL document CHEMBL4411303, “Synthesis of tetrazole derivatives bearing pyrrolidine scaffold and evaluation of their antifungal activity against Candida albicans” (Eur J Med Chem, 2019).
